Tests used:
Carrot-1 RNA aptamer = assay: Properties of Carrot-1 RNA aptamer with different fluorophores (spectra, extinction coefficient, quantum yield, activation fold); type: biochemical; settings: for fluorescence intensity: excited at 524±10 nm, emission 580 nm±10 nm, 5 μM Carrot-1 + 1 μM IV-39, or control 1 μM IV-39 alone
Protocol: (§1) (5) Function detection of nucleic acid aptamers Carrot or Carrot mutant nucleic acid aptamer molecules were prepared according to common experimental method (I), 5 μM of nucleic acid aptamer molecules and 1 μM of fluorophore molecules were incubated in detection buffer (40 mM HEPES, pH 7.4, 125 mM KCl, 5 mM MgCl2, 5% DMSO), and Synergy Neo2 multifunctional microplate reader was used for detecting and obtaining the maximum excitation peak and the maximum emission peak of the fluorescence of the nucleic acid aptamer-fluorophore molecule complex. The Synergy Neo2 multifunctional microplate reader was used again for detecting the fluorescence intensity of the aptamer-fluorophore molecule complex under its maximum excitation and emission conditions. Control sample (1 μM of fluorophore molecules without nucleic acid aptamer) was measured under the same condition, and the ratio of fluorescence intensity was calculated. […] By using Synergy Neo2 multifunctional microplate reader, it was detected that the fluorescence intensity of the complex was 5720 when it was excited at 524±10 nm and emitted under the emission condition of 580 nm±10 nm, while fluorescence intensity of the control sample (1 μM of IV-39 fluorophore molecules) under the same detection condition was 20, so the activation multiple of Carrot-1 nuclear acid aptamer to IV-39 fluorophore molecule was 286.
In order to detect the spectral properties of the Carrot-IV-39 complex, Carrot-1 (SEQ ID NO: 2) RNA was prepared according to the commonly used experimental method (1). 1 μM IV-39 with 5 μM Carrot-1 was incubated.
Carrot-1 RNA aptamer was prepared according to the commonly used experimental methods (1), and was used to detect the properties of IV-39 analogues upon Carrot binding, including the fluorescence spectrum, extinction coefficient, quantum yield and fluorescence activation fold. From the data shown in the table, Carrot-1 still could activate the fluorescence of IV-39 analogues.

Carrot-1 = assay: Binding constant of Carrot-1 and IV-39 by fluorescence titration; settings: 20 nM Carrot-1 incubated with different concentrations of IV-39
Protocol: In order to detect the binding constant of Carrot-1 and IV-39, 20 nM Carrot-1 was incubated with different concentrations of IV-39 and their fluorescence was determined.

[1] = tested on: tdMCP-NanoLuc-tdMCP fusion protein; settings: 293T/17 cells, 1 μM IV-4, 20 μM Furimazine
Description: In order to use Carrot to detect RNA-protein interactions, the interaction between phage capsid protein MCP and its binding sequence MS2 RNA was used as an example. […] The cDNAs encoding tdMCP protein (the dimeric form of MCP, SEQ ID No: 32) and NanoLuc protein (SEQ ID No: 33) were synthesized. Primers P29 and P30, P33 and P34 were used to amplify tdMCP gene fragment, respectively. Primers P35 and P36 were used to amplify NanoLuc gene fragment. The obtained fragments were inserted into the HindIII and XhoI sites of pCDNA3.1 hygro(+) to generate pCDNA3.1 hygro(+)-tdMCP-NanoLuc-tdMCP according to the commonly used experimental method (4), the sequence of the fusion protein encoded by which is SEQ ID No:34.
After 24 h of transfection, 1 μM IV-4 fluorophore was added to label Carrot. Imaging was taken immediately after addition of 20 μM Furimazine to the medium.

[2] = Fluorescence activation of IV-39 fluorophore by Carrot-1 and Carrot mutants (function detection of nucleic acid aptamers); type: biochemical; settings: for Activation fold: 1 μM IV-39 incubated with 5 μM Carrot-1 mutant RNA
Protocol: as §1
In order to detect the fluorescence activation of IV-39 fluorophore by different Carrot mutant, the Carrot-1 sequence was mutated according to Table 1. The Carrot RNA containing different mutations were prepared according to the commonly used experimental method (1). 1 μM IV-39 was incubated with 5 μM Carrot-1 mutant RNA and their fluorescence activation folds were determined according to the commonly used experimental method (5). […] Several Carrot-1 mutants containing 2-5 mutations still retained strong fluorescence activation of IV-39 (>100 times) (Table 3). In summary, many Carrot-1 mutants containing single and multiple mutants still retain the ability to activate the fluorescence of IV-39 fluorophore.

293T/17 cells = assay: RNA labeling in mammalian cells using tRNA-Carrot-2 and IV-39; type: cell-based
Description: In major imaging experiments of the examples, a Leica SP8 confocal laser microscope was used for photographing, HCXPL APO 63.0×1.47 oil lens and HyD detector were used, and various lasers, such as 405 nm, 457 nm, 476 nm, 488 nm, 497 nm, 514 nm nm, 561 nm and 633 nm, were used for imaging; complexes formed by each Carrot and dye molecules were imaged by laser close to the wavelength corresponding to the maximum excitation peak. For others, GFP used a 488 nm laser; Hoechst and DAPI fluorescence used a 405 nm laser; and Rhodamine used a 561 nm laser.
In order to use Carrot and IV-39 for RNA labeling in mammalian cells, the reported Pepper and Corn aptamer (binding to HBC599 and DFHO fluorophores, respectively) were used as the controls (Chen et al. Nature Biotechnology 2019. 37: 1287-1293; Song et al. Nature Chemical Biology 2017. 13: 1187-1194). The mammalian cell expression plasmids expressing the RNA aptamers were constructed. cDNAs encoding tRNA-Carrot-2 (SEQ ID No: 4), tRNA-Pepper (SEQ ID No: 22) and tRNA-Corn (SEQ ID No: 21) were synthesized and amplified using the primers P7 and P8, and the primers P9 and P10 were used to amplify pEGFP-N1 to remove the promoter and multiple cloning site regions. […] Fluorescence imaging was performed according to the commonly used experimental method (3).

[3] = complex of 5 μM Carrot-1 and 1 μM IV-39

Molecule | fluorescence intensity (Carrot-1 RNA aptamer) | Kd (Carrot-1) [nM] | maximum emission peak (Carrot-1 RNA aptamer; [3]) [nm] | maximum excitation peak (Carrot-1 RNA aptamer; [3]) [nm] | fluorescence of Carrot-IV-4 complex by luminescence energy transfer (BRET) [1] | Activation fold ([2]; multiple mutations) [fold] | Activation fold ([2]; single mutation) [fold] | activation multiple of aptamer to IV-39 fluorophore molecule ([2]; 5 μM Carrot-1, 1 μM IV-39, ratio of fluorescence intensity to fluorophore alone) | fluorescence intensity compared with tRNA-Pepper-HBC599 and tRNA-Corn-DFHO complexes (293T/17 cells; 0.5 μM IV-39, 0.5 μM HBC599, 10 μM DFHO) | fluorescence in cells (293T/17 cells; 0.5 μM IV-39, 24 h after transfection, with or without 20 mM Mg2+)
CN1C(=O)/C(=C/c2ccc(N(C)CCO)cc2)N=C1/C=C/c1ccccc1 [IV-39] | 20 | 58 | – | – | – | – | – | – | – | –
Carrot-1: RNA aptamer with the sequence of SEQ ID NO: 1, General Formula Carrot structure N1AGAUUGUAAACAN14-N15-N16GACACUN23 (GGGAAGAUUGUAAACACGCCGAAAGGCGGACACUUCCC; chemistry not given here) | 5720 | – | 580 | 524 | could not emit obvious orange-red fluorescence | 286 | 286 | 286 | – | –
tRNA-Carrot-IV-39: complex of tRNA-Carrot-2 (SEQ ID No: 4) RNA aptamer and IV-39 fluorophore (nucleic acid, RNA aptamer in complex with IV-39 fluorophore, further chemistry not given here) GCCCGGAUAGCUCAGUCGGUAGAGCAGCGGCCGGAAGAUUGUAAACACGCCGAAAGGCGGACACUUCCGGCCGCGGGUCCAGGGUUCAAGUCCCUGUUCGGGCGCCA | – | – | – | – | – | – | – | – | markedly higher | bright orange fluorescence
